Measurements from patent publication US20040253261A1, “Biological compositions and methods for treatment of pancreatic cancer” (priority 2003, published 2004).
Like-named read-outs stand apart in the source and are kept apart here.

How the values were obtained:
[1] = tested on: pancreatic cancer tumor cells; settings: for Number of live animals remaining in the groups after 30 days of treatment: 30 mice per group
Procedure: (§1) The survival time of mice after tumor injection and treatment was studied.
(§2) The biological composition comprising 10^8 cells per ml of activated and conditioned yeast cells of the strain Saccharomyces cerevisiae Hansen strain IFFI 1413 was prepared by the methods described in Section 5.1 and subsections therein.
The animals were prepared in a similar manner as described in Section 6.1.
The mice injected with tumor cells were divided into 4 experimental groups of ten mice per group and one control group. The four experimental groups were triplicated (i.e., using a total of 120 mice in the experimental groups). In group 2AY, the mice received 0.3 ml of the biological composition once per day. In group 2NY, the mice received 0.3 ml of the untreated yeast cells once per day. In group 2VDS, the mice were injected intravenously with 3 mg of vindesine (VDS) per kg body weight once a week for four weeks. In group 2CK1, the mice received 0.3 ml of physiological saline once per day.
(§3) The mice received the biological compositions, untreated yeast cells, VDS or saline on the same day as the tumor cells were transplanted. The mice in group 2CK2 also started receiving saline on the same day as the other four groups. The biological compositions, untreated yeast cells and saline were administered orally by a feeding tube and the VDS by intravenous injection for 30 consecutive days. The mice were observed over 6 months from the day of tumor inoculation and survival was recorded. The weight of the mice as well as the weight of the tumor were determined by standard techniques.

[2] = tested on: pancreatic cancer tumor cells; test: BALB/c mouse model of human pancreatic cancer, growth of tumors; settings: tumor-bearing BALB/c mice, 30 consecutive days of treatment, sacrificed on 31st day from tumor inoculation
Procedure: as §2
The mice injected with tumor cells were divided into 4 experimental groups of ten mice per group and one control group. The four experimental groups were triplicated (i.e., using a total of 120 mice in the experimental groups).
The mice in group CK2 also started receiving saline on the same day as the other four groups. The biological compositions, untreated yeast cells and saline were administered orally by a feeding tube and the VDS by intravenous injection for 30 consecutive days.

[3] = tested on: mouse pancreatic cancer cell line MPC-83; settings: for Number of live animals remaining in the groups after 30 days of treatment: 30 mice per group
Procedure: as §1
The biological composition comprising 10^8 per ml of activated and conditioned yeast cells of the strain Saccharomyces cerevisiae Hansen strain IFFI 1413 was prepared by the methods described in Section 5.1 and subsections therein.
The animals were prepared in a similar manner as described in Section 8.1.
The mice injected with tumor cells were kept for 5 days and were divided into 4 experimental groups of ten mice per group and one control group. The four experimental groups were triplicated (i.e., using a total of 120 mice in the experimental groups). In group 2AY, the mice received 0.5 ml of the biological composition once per day. In group 2NY, the mice received 0.5 ml of the untreated yeast cells once per day. In group 2MMC, the mice were injected intravenously with 1.5×10^5 units of mitomycin C (MMC) per kg body weight per day. In group 2CK1, the mice received 0.5 ml of physiological saline once per day.
as §3, with “MMC” for “VDS”

[4] = tested on: mouse pancreatic cancer cell line MPC-83; test: kun ming mouse model of pancreatic cancer (MPC-83), growth of tumors; settings: MPC-83-bearing kun ming mice, 30 consecutive days of treatment, sacrificed on 31st day from tumor inoculation
Procedure: as §2
The mice injected with tumor cells were kept for 5 days and were divided into 4 experimental groups of ten mice per group and one control group. The four experimental groups were triplicated (i.e., using a total of 120 mice in the experimental groups).
The mice received the biological compositions, untreated yeast cells, MMC or saline on the same day as the tumor cells were transplanted. The mice in group CK2 also started receiving saline on the same day as the other four groups. The biological compositions, untreated yeast cells and saline were administered orally by a feeding tube and the MMC by intravenous injection for 30 consecutive days.

[5] = 0 month after cessation of treatment
[6] = 1 month after cessation of treatment
[7] = 2 months after cessation of treatment
[8] = 3 months after cessation of treatment
[9] = 4 months after cessation of treatment
[10] = 5 months after cessation of treatment
[11] = 6 months after cessation of treatment
[12] = mice that survived, observed over 6 months from tumor inoculation

In the case of `CC[C@]1(O)C[C@@H]2CN(CCc3c([nH]c4ccccc34)[C@@](C(=O)OC)(c3cc4c(cc3OC)N(C)[C@H]3[C@@](O)(C(N)=O)[C@H](O)[C@]5(CC)C=CCN6CC[C@]43[C@@H]65)C2)C1` [Group 2VDS, vindesine], the “Number of live animals remaining in the groups after 30 days of treatment” value (“Number of live animals remaining” below) [1, 5] is reported as 30, the “Number of live animals remaining” value [1, 6] is reported as 30 and the “Number of live animals remaining” value [1, 7] is reported as 27. For the same molecule, the “Number of live animals remaining” value [1, 8] was 27, the “Number of live animals remaining” value [1, 9] was 11 and the “Number of live animals remaining” value [1, 10] was 0. The “Number of live animals remaining” value [1, 11] was 0, the “survival time of mice bearing pancreatic cancer cells” value ([1]; BALB/c mice, 30 days of treatment, from injection of tumor cells) was “all died after four months” and the “mean weight of mice and standard deviation” value [1, 12] was “all animals dead”. For the same molecule, the “mean weight of tumor nodules and standard deviation” value [1, 12] was “all animals dead”.

With `CO[C@@]12[C@H](COC(N)=O)C3=C(C(=O)C(C)=C(N)C3=O)N1C[C@@H]1N[C@@H]12` [Group MMC, mitomycin C] the “mean weight of mice and standard deviation” value [2] was 18.9 ± 3.4 g, the “mean weight of tumor nodules and standard deviation” value [2] was 1.37 ± 0.7 mg and the “Number of live animals remaining” value [3, 5] was 30. The “Number of live animals remaining” value [3, 6] was 27, the “Number of live animals remaining” value [3, 7] was 21 and the “Number of live animals remaining” value [3, 8] was 7. The “Number of live animals remaining” value [3, 9] was 0, the “Number of live animals remaining” value [3, 10] was 0 and the “Number of live animals remaining” value [3, 11] was 0. For the same molecule, the “survival time of mice bearing pancreatic cancer cells” value ([3]; kun ming mice, 30 days of treatment, from injection of tumor cells) was “all died after four months”, the “mean weight of mice and standard deviation” value [3, 12] was “all animals dead” and the “mean weight of tumor nodules and standard deviation” value [3, 12] was “all animals dead”. For the same molecule, the “mean weight of mice and standard deviation” value [4] was 18.3 ± 1.5 g and the “mean weight of tumor nodules and standard deviation” value [4] was 2.8 ± 1.2 g.
